Measurements from patent US8299060B2, “Trans-4-[[(5S)-5-[[[3,5-bis(trifluoromethyl)phenyl]methyl] (2-methyl-2H-tetrazol-5-yl)amino]-2,3,4,5-tetrahydro-7,9-dimethyl-1H-1-benzazepin-1-yl]methyl]-cyclohexanecarboxylic acid” (Eli Lilly and Company, priority 2009, dated 2012).
Marks after values point to notes of the source that are not given here.

Key:
[1] = Hygroscopicity and degradation on storage at ambient temperature; assay type: physicochemical; settings: stored at ambient temperature
[2] = Chemical stability: acid stability in 0.1N HCl at 40° C.; assay type: physicochemical
Method: Table 6 below lists the chemical stability of BCCA free acid as well as that of selected Examples 31, 89, 153, and 175 disclosed in WO 06/002342, renumbered below as compounds 13, 14, 15, and 16, respectively. […] This increased acid stability for BCCA free acid is not taught and cannot be predicted considering WO 06/002342.
Sample preparations: 1) Compound Stock: 0.9 mg/mL in ACN; 2) 100 μL stock+700 μL ACN+1 mL media (0.1N HCl, 50 mM PO4, pH 8, and 0.3% H2O2); 3) Place vials in heated (40° C.) autosampler, inject at 4 hour intervals for 16 or 24 hours.
Column: Alltech Alltima Phenyl, 3 μm, 4.6×150 mm or Waters XTerra MS C18, 3.5 μm, 4.6×150 mm Column temperature: 50° C., Injection volume: 10 μL. Detection: UV @ 226, 254 or 266 nm (depending on compound) Flow rate: 1.5 mL/min. Mobile phase: 0.1% TFA in 50% water/50% ACN (may need to adjust % ACN to keep compound peak retention time ˜5 min.) final sample conc. 0.05 mg/mL; ACN content 44%.

[3] = IV and PO pharmacokinetics in male Sprague Dawley rats; assay type: in vivo; settings: 3 mg/kg PO; for F % (AUC Extrap.) ± sd: 1 mg/kg IV; for Cmax / Tmax: rat, plasma
Method: This following is to determine the pharmacokinetic parameters, including oral bioavailability, following a single 1 mg/kg intravenous bolus or a 3 mg/kg oral dose administration of the compound to male Sprague Dawley rats (n=4) in a crossover study design. The intravenous vehicle is 20% solutol microemulsion/80% deionized water. The oral vehicle is povidone USP 10%/SLS 0.5%/QS deionized water. In the intravenous arm, blood samples are collected at 0.08, 0.25, 0.5, 1, 2, 5, 8, 12, and 24 hours post-dose. In the oral arm, blood samples are collected at 0, 0.25, 0.5, 1, 2, 5, 8, 12, and 24 hours post-dose. Plasma is obtained by centrifugation, placed on ice, and frozen until samples are shipped on dry ice to Bioanalytical Systems, Inc. (BASi; West Lafayette, Ind.) for bioanalytical analysis. Concentrations of BCCA are determined by LC/MS/MS and pharmacokinetic parameters are calculated using a validated software program (Watson, Version 7.1). Other vehicles can be used to evaluate the bioavailability of BCCA including: 1% w/v sodium carboxymethyl cellulose, 0.25% w/v polysorbate 80 (Tween 80) and 0.05% 0.05% Dow Corning Antifoam 1510-US in purified water or; 1% w/v sodium carboxymethyl cellulose, 0.5% w/v sodium laurate sulfate, and 0.05% 0.05% Dow Corning Antifoam 1510-US in purified water in purified water each used either with or without sonification to facilitate dissolution of the compounds.

HDL cholesterol = assay: In vivo assay of plasma lipids (HDL cholesterol elevation); set-up: species or system transgenic mice that express human CETP; settings: 30 mpk oral dose, 79.5% corn oil, 20% oleic acid, 0.5% Lubrafil, CETP and Apo A1 heterozygote mice
Method: Syrian Golden Hamsters, which express endogenous CETP, can be used to assess the activity of the compounds in vivo. Test compounds are administered orally 30 mpk dose in a 79.5% corn oil, 20% oleic acid, 0.5% Lubrafil vehicle to a strain of transgenic mice that express human CETP (female or male CETP and Apo A1 heterozygote mice Taconic, Germantown, N.Y.). At various times after dosing, ranging from 4 h to 48 h, blood/plasma can be obtained. The CETP activity can be determined by a method similar to that described above for the in vitro CETP activity assay, with the modification that plasma from the treated animals is used as the CETP source in the assay.
Activity of compounds of this invention in vivo can be evaluated by comparing the level of elevation of HDL cholesterol relative to a control by a given amount of a compound in a CETP-containing animal species. The test compounds are administered as described above for the in vivo assay of CETP activity. […] The HDL cholesterol levels in the serum can be determined by known procedures using HDL-C plus reagents (Roche/Hitachi, Indianapolis, Ind.) with a clinical chemistry analyzer (Roche/Hitachi, Indianapolis, Ind.). Additional serum lipids can be analyzed by enzymatic methods. Lipids in the VLDL, LDL and HDL fractions are analyzed by enzymatic methods after precipitation or size exclusion chromatography. […]

human CETP = target: T1, human CETP (Homo sapiens, UniProt P11597); assay: In vivo assay of CETP activity; set-up: species or system transgenic mice that express human CETP; settings: 30 mpk oral dose, 79.5% corn oil, 20% oleic acid, 0.5% Lubrafil; CETP and Apo A1 heterozygote mice; 8 hr; read-out: % CETP Inhib 8 hr
T1 construct: plasma from the treated animals is used as the CETP source in the assay; tissue Taconic; host or cells: plasma of transgenic mice expressing human CETP (CETP and Apo A1 heterozygotes)
T1 sequence (P11597 18-493): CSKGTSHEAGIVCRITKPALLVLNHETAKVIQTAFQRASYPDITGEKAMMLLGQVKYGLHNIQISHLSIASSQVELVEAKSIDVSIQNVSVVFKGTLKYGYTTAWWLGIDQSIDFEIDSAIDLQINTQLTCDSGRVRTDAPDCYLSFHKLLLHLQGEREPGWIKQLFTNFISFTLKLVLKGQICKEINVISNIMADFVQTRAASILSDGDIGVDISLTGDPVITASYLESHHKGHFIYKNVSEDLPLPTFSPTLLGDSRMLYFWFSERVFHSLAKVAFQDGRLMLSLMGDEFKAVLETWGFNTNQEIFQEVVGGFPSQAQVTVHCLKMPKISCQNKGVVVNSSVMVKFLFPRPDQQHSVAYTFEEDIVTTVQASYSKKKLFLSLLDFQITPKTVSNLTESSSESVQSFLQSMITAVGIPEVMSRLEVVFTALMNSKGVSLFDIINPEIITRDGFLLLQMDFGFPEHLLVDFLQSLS
Text: An in vitro Scintillation Proximity Assay (SPA) has been used to evaluate the ability of compounds of this invention to inhibit the transfer of radiolabeled cholesterol esters between HDL and LDL. This assay monitors the inhibition of the transfer of [^3H]cholesterol esters from HDL (Amersham) to biotinylated LDL (Amersham) by a CETP source. The CETP source for this assay can be produced by AV-12 cells that have been created to express human CETP. The radiolabeled cholesterol ester is transferred in a HEPES-NaCl based buffer, after thirty minutes incubation the reaction is stopped and the biotinylated LDL is bound to streptavidin/scintillant coated SPA beads (Amersham). The radioactive signal is measured in a Packard 96-well scintillation TopCounter with window settings fully open. A decrease in radioactive signal from the LDL relative to a standard indicates the ability of compounds to inhibit the activity of CETP.
Syrian Golden Hamsters, which express endogenous CETP, can be used to assess the activity of the compounds in vivo. […] The CETP activity can be determined by a method similar to that described above for the in vitro CETP activity assay, with the modification that plasma from the treated animals is used as the CETP source in the assay.

Row | SMILES | hygroscopicity [1] | Acid Stability, percent remaining, 8 hrs [2] | Acid Stability, percent remaining, 24 hrs [2] | further results
1 | Cc1cc(C)c2c(c1)[C@@H](N(Cc1cc(C(F)(F)F)cc(C(F)(F)F)c1)c1nnn(C)n1)CCCN2C[C@H]1CC[C@H](C(=O)O)CC1.O (relative stereo) [Example 3, Trans-4-[[(5S)-5-[[[3,5-bis(trifluoromethyl)phenyl]methyl](2-methyl-2H-tetrazol-5-yl)amino]-2,3,4,5-tetrahydro-7,9-dimethyl-1H-1-benzazepin-1-yl]methyl]-cyclohexanecarboxylic acid•Hydrate] | – | – | – | degradation on storage [1]: minor or very little degradation
2 | Cc1cc(C)c2c(c1)[C@@H](N(Cc1cc(C(F)(F)F)cc(C(F)(F)F)c1)c1nnn(C)n1)CCCN2C[C@H]1CC[C@H](C(=O)O)CC1.O (relative stereo) [Example 5, Trans-4-[[(5S)-5-[[[3,5-bis(trifluoromethyl)phenyl]methyl](2-methyl-2H-tetrazol-5-yl)amino]-2,3,4,5-tetrahydro-7,9-dimethyl-1H-1-benzazepin-1-yl]methyl]-cyclohexanecarboxylic acid hydrate in crystalline form] | non-hygroscopic | – | – | –
3 | CC(C)(C)N.CC(C)O.Cc1cc(C)c2c(c1)[C@@H](N(Cc1cc(C(F)(F)F)cc(C(F)(F)F)c1)c1nnn(C)n1)CCCN2C[C@H]1CC[C@H](C(=O)O)CC1 (relative stereo) [Example 14, Trans-4-[[(5S)-5-[[[3,5-bis(trifluoromethyl)phenyl]methyl](2-methyl-2H-tetrazol-5-yl)amino]-2,3,4,5-tetrahydro-7,9-dimethyl-1H-1-benzazepin-1-yl]methyl]-cyclohexanecarboxylic acid tert-butylamine isopropyl alcohol (1:1:1) solvate] | non-hygroscopic | – | – | –
4 | CC(C)(C)N.CCO.Cc1cc(C)c2c(c1)[C@@H](N(Cc1cc(C(F)(F)F)cc(C(F)(F)F)c1)c1nnn(C)n1)CCCN2C[C@H]1CC[C@H](C(=O)O)CC1.Cc1cc(C)c2c(c1)[C@@H](N(Cc1cc(C(F)(F)F)cc(C(F)(F)F)c1)c1nnn(C)n1)CCCN2C[C@H]1CC[C@H](C(=O)O)CC1 (relative stereo) [Example 15, Trans-4-[[(5S)-5-[[[3,5-bis(trifluoromethyl)phenyl]methyl](2-methyl-2H-tetrazol-5-yl)amino]-2,3,4,5-tetrahydro-7,9-dimethyl-1H-1-benzazepin-1-yl]methyl]-cyclohexanecarboxylic acid hemi tert-butylamine salt hemi ethanol (2:1:1) solvate in crystalline form] | non-hygroscopic | – | – | –
5 | Cc1cc2c(cc1C(F)(F)F)N(C[C@H]1CC[C@H](CC(=O)O)CC1)CCC[C@@H]2N(Cc1cc(C(F)(F)F)cc(C(F)(F)F)c1)c1nnn(C)n1 [Compound 13, (4-{5-[(3,5-Bis-trifluoromethyl-benzyl)-(2-methyl-2H-tetrazol-5-yl)-amino]-7-methyl-8-trifluoromethyl-2,3,4,5-tetrahydro-benzo[b]azepin-1-ylmethyl}-cyclohexyl)-acetic acid] | – | 14.5% | 0% | –
6 | Cc1cc2c(cc1C(F)(F)F)N(Cc1ccc(C(=O)O)cc1)CCC[C@@H]2N(Cc1cc(C(F)(F)F)cc(C(F)(F)F)c1)c1nnn(C)n1 [Compound 14, (S)-4-{5-[(3,5-Bis-trifluoromethyl-benzyl)-(2-methyl-2H-tetrazol-5-yl)-amino]-7-methyl-8-trifluoromethyl-2,3,4,5-tetrahydro-benzo[b]azepin-1-ylmethyl}-benzoic acid] | – | 52% | 13.4% | –
7 | Cc1cc2c(c(C)c1C(F)(F)F)N(CC1CCC(CC(=O)O)CC1)CCC[C@@H]2N(Cc1cc(C(F)(F)F)cc(C(F)(F)F)c1)c1nnn(C)n1 (stereo partly drawn) [Compound 15, reference compound] | – | 100.4% | 99.1% | F % (AUC Extrap.) ± sd [3]: 8 ± 3%; Cmax [3]: 85 ± 43 ng/mL; Tmax [3]: 5 h
8 | Cc1cc2c(cc1C(F)(F)F)N(C1CCC(C(=O)O)CC1)CCC[C@@H]2N(Cc1cc(C(F)(F)F)cc(C(F)(F)F)c1)c1nnn(C)n1 (stereo partly drawn) [Compound 16] | – | 37.8% | – | Acid Stability, percent remaining after 16 hrs ([2]; 16 hrs (footnote *)): 13.4* Percent
9 | Cc1cc(C)c2c(c1)[C@@H](N(Cc1cc(C(F)(F)F)cc(C(F)(F)F)c1)c1nnn(C)n1)CCCN2C[C@H]1CC[C@H](C(=O)O)CC1 [Ex 1, Trans-4-[[(5S)-5-[[[3,5-bis(trifluoromethyl)phenyl]methyl](2-methyl-2H-tetrazol-5-yl)amino]-2,3,4,5-tetrahydro-7,9-dimethyl-1H-1-benzazepin-1-yl]methyl]-cyclohexanecarboxylic acid] | non-hygroscopic | 97.3% | 91.3% | % HDL cholesterol increase at 8 hr (HDL cholesterol): 129.7. %; F % (AUC Extrap.) ± sd [3]: 38 ± 4%; Cmax [3]: 208 ± 41 ng/mL; Tmax [3]: 3.5 ± 1.7 h; inhibition at 30 mg/kg (human CETP): 98.6%
10 | [O-][n+]1ccccc1[S-].[O-][n+]1ccccc1[S-].[Zn+2] [zinc salt] | essentially non-hygroscopic | – | – | –
